The values below come from ChEMBL document CHEMBL1201862, “PubChem BioAssay data set” (2004).

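These data come from cells grown in 96-well plates and exposed to compound for 48 hours at five concentrations. GI50 = concentration required for 50% inhibition of growth.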 Calls of active or inactive are those of the source. No stated cut-off is given here; in the data, active = GI50 up to about 1.1 µM and inactive = higher.

Holding throughout (test): NCI anticancer screen, dose series, 48 h
Assay [1] deals with MCF7.
Assay [2] has as its system KM12.
Assay [3] deals with SK-MEL-2.
In assay [4] the test system is CAKI-1.
Assay [5] has as its system SK-MEL-28.
Assay [6] has as its system UACC-257.
For assay [7], the system named is OVCAR-8.
The subject of assay [8] is SF-268.
The subject of assay [9] is A498.
Assay [10] has as its system TK-10.
Assay [11] relates to RPMI-8226.
Assay [12] concerns SNB-19.
In assay [13] the test system is 786-0.
The subject of assay [14] is UACC-62.
For assay [15], the system named is SF-295.
Assay [16] concerns RXF 393.
Assay [17] has as its system OVCAR-3.
Assay [18] deals with NCI/ADR-RES.
The test system of assay [19] is SR.
Assay [20] relates to EKVX.

Consider `CC1(C)C2CC(O)C1CCC2=O` (centres undefined), for which the GI50 in [1], in assay [2], in assay [3], in [4], in assay [5] and in assay [6] was > 100 µM (inactive) in each case. The GI50 in [7], in assay [8], in assay [9], in assay [10], in [11] and in assay [12] was > 100 µM (inactive) throughout. The GI50 in [13], in assay [14], in [15], in assay [16], in assay [17] and in [18] was > 100 µM (inactive) each time.

Consider `O=[N+]([O-])c1ccc(-n2nc3ccc4nonc4c3n2)cc1`, for which the GI50 is 20.4 µM (inactive) in assay [1]; 94.8 µM (inactive) in assay [2]; 47.9 µM (inactive) in assay [3]; > 100 µM (inactive) in [19]; 22.7 µM (inactive) in [4]; 46.2 µM (inactive) in [5]. For the same compound, the GI50 in assay [6] was > 100 µM (inactive); in assay [8], 34.3 µM (inactive); in assay [10], 18.4 µM (inactive); in assay [20], 58.3 µM (inactive); in assay [11] it was > 100 µM (inactive); in [12], 25.4 µM (inactive). Besides, the GI50 was 28.1 µM (inactive) in [13]; 32.5 µM (inactive) in assay [14]; 28 µM (inactive) in [15]; 71.4 µM (inactive) in assay [17]; 56.1 µM (inactive) in assay [18].

For the compound `O=C1N=C(SC(SC2=NC(=O)C3(NN2)c2ccccc2-c2ccccc23)=C(SC2=NC(=O)C3(NN2)c2ccccc2-c2ccccc23)SC2=NC(=O)C3(NN2)c2ccccc2-c2ccccc23)NNC12c1ccccc1-c1ccccc12`, the GI50 in assay [1] is 4.27 µM (inactive); in [2], 9.29 µM (inactive); in assay [19], 3.24 µM (inactive); in [4] it was > 10 µM (inactive); in [5] it was > 10 µM (inactive); in assay [6] it was 5.64 µM (inactive). Further, the GI50 in assay [7] is 7.21 µM (inactive); in [8], > 10 µM (inactive); in assay [10], > 10 µM (inactive); in assay [20] it was 2.59 µM (inactive); in [11], 3.59 µM (inactive); in assay [12] it was > 10 µM (inactive). For the same compound, the GI50 is 9.66 µM (inactive) in [13]; 6.53 µM (inactive) in [14]; > 10 µM (inactive) in assay [15]; > 10 µM (inactive) in assay [16]; 3.66 µM (inactive) in assay [18].

As for `CC1(C)O[C@H]([C@H](O)c2nnc3ccc(Cl)nn23)[C@@H]([C@H]2COC(C)(C)O2)O1`, the GI50 in assay [1], in assay [2], in assay [3], in assay [4], in [5] and in assay [6] was > 100 µM (inactive) in each case. The GI50 in assay [7], in assay [8], in assay [9], in [10], in assay [20] and in assay [11] was > 100 µM (inactive) throughout. Besides, the GI50 in [12], in assay [13], in assay [14], in [15], in assay [16] and in assay [17] was > 100 µM (inactive) in each case. The GI50 in [18] was > 100 µM (inactive).

`Cc1ccc(S(=O)(=O)NC(=O)C2C(=O)CC3(CCCCC3)CC2=O)cc1`: the GI50 is 22.8 µM (inactive) in assay [1]; 19.6 µM (inactive) in assay [2]; 26.4 µM (inactive) in assay [4]; 28.6 µM (inactive) in [6]; 27.7 µM (inactive) in assay [7]; 34.8 µM (inactive) in assay [8]. The GI50 was 28.4 µM (inactive) in assay [9]; 23.5 µM (inactive) in assay [10]; 25.4 µM (inactive) in assay [20]; 23.1 µM (inactive) in assay [11]; 41.5 µM (inactive) in assay [12]; 25.9 µM (inactive) in assay [13]. For the same compound, the GI50 in assay [14] was 31.3 µM (inactive); in assay [15] it was 22 µM (inactive); in [16] it was 38.3 µM (inactive); in assay [17], 29 µM (inactive); in assay [18], 19.7 µM (inactive).

With `CC(NC(=O)Cc1ccccc1)NC(=O)C(C)C(=O)Nc1ccccc1` (centres undefined), the GI50 was > 100 µM (inactive) in [1]; > 100 µM (inactive) in assay [2]; > 100 µM (inactive) in assay [3]; > 100 µM (inactive) in assay [19]; 66.5 µM (inactive) in assay [4]; > 100 µM (inactive) in assay [6]. In addition, the GI50 in assay [7] was 34.8 µM (inactive); in assay [8] it was 36.6 µM (inactive); in [10], 33.3 µM (inactive); in assay [20] it was > 100 µM (inactive); in assay [11], > 100 µM (inactive); in [12], 24 µM (inactive). Besides, the GI50 in [13] was 52.2 µM (inactive); in assay [14], > 100 µM (inactive); in assay [15], > 100 µM (inactive); in [16], 47.1 µM (inactive); in assay [18] it was > 100 µM (inactive).

On to `CC1=CC(=O)/C(=C/NC(=S)Nc2ccccc2)C(=O)O1`, for which the GI50 in assay [1], in assay [2], in assay [3], in assay [4], in assay [6] and in assay [7] was > 100 µM (inactive) each time. Also, the GI50 in assay [8], in assay [9], in [10], in assay [20], in [11] and in assay [12] was > 100 µM (inactive) in each case. Moreover, the GI50 in assay [13] is > 100 µM (inactive); in assay [14], > 100 µM (inactive); in assay [15], > 100 µM (inactive); in [16] it was 40.7 µM (inactive); in assay [17], > 100 µM (inactive); in assay [18], > 100 µM (inactive).

For the compound `CCOC(=O)c1ccc(Nc2nc3ccccc3nc2-c2cccs2)cc1`, the GI50 in [1] was 34 µM (inactive); in assay [2], 49.1 µM (inactive); in assay [19] it was 26.9 µM (inactive); in assay [4], 21.9 µM (inactive); in assay [5], > 100 µM (inactive); in assay [6] it was 39.8 µM (inactive). Moreover, the GI50 in assay [7] is 93.1 µM (inactive); in assay [8], 93.5 µM (inactive); in assay [10], 23.3 µM (inactive); in [20], 35.3 µM (inactive); in [11], 62.8 µM (inactive); in assay [12], > 100 µM (inactive). For the same compound, the GI50 in assay [13] is 50.7 µM (inactive); in assay [14] it was 4.24 µM (inactive); in assay [15], 49.4 µM (inactive); in assay [16] it was 23.7 µM (inactive); in assay [17], 31 µM (inactive); in assay [18], 35.6 µM (inactive).

Consider `CCOC(=O)C1=CC(C)(C(=O)OCC)Nc2c(nc(N)[nH]c2=O)N1` (centres undefined), for which the GI50 in assay [1], in [2], in [3], in [4], in assay [5] and in assay [6] was > 10 µM (inactive) in each case. The GI50 in assay [7], in [8], in [9], in assay [10], in assay [20] and in [11] was > 10 µM (inactive) in each case. In addition, the GI50 in assay [12], in assay [13], in assay [15], in assay [16], in [17] and in assay [18] was > 10 µM (inactive) each time.

For `O=c1[nH]nc(Cc2ccc(Cl)cc2)n1/N=C\c1ccc(/C=N/n2c(Cc3ccc(Cl)cc3)n[nH]c2=O)cc1`, the GI50 in [1] is > 100 µM (inactive); in assay [2] it was > 100 µM (inactive); in assay [3] it was 38.5 µM (inactive); in assay [4] it was 33.3 µM (inactive); in [5], > 100 µM (inactive); in assay [6] it was > 100 µM (inactive). Also, the GI50 in assay [7] was 54 µM (inactive); in assay [8] it was 37.9 µM (inactive); in assay [9], > 100 µM (inactive); in [10], 0.855 µM (active); in [20], > 100 µM (inactive); in [11], > 100 µM (inactive). The GI50 was 50.7 µM (inactive) in assay [12]; 13.3 µM (inactive) in [13]; > 100 µM (inactive) in [14]; > 100 µM (inactive) in assay [15]; 29.7 µM (inactive) in assay [16]; 81.7 µM (inactive) in assay [17]. Further, the GI50 in assay [18] was 90.2 µM (inactive).

In the case of `O=C(c1ccc2ccccc2c1)C1S(=O)(=O)OCCOS1(=O)=O`, the GI50 in [1], in [2], in assay [3], in assay [19], in assay [4] and in assay [5] was > 100 µM (inactive) throughout. Besides, the GI50 in assay [6], in assay [7], in assay [10], in assay [20], in [11] and in [12] was > 100 µM (inactive) throughout. Moreover, the GI50 in assay [13], in [15], in [17] and in assay [18] was > 100 µM (inactive) throughout.
